Assay results taken from publication PMC10263210, “Design, Synthesis and Biological Evaluation of Novel MDH Inhibitors Targeting Tumor Microenvironment” (Pharmaceuticals, 2023).

Experiments:
A549 lung cancer cells = test: Cell growth inhibition assay (SRB), A549; format: cell-based; details: Homo sapiens, means of three experiments, read-out: Cell Viability IC50 A549
Protocol: At the same time, we investigated the effect of the compounds on the growth inhibition of A549 and H460 lung cancer cells bearing KRAS and LKB1 mutations. […] Compound 50 containing a piperidine linker was selected for further analysis.
(§1) Human lung carcinoma A549 cells were cultured in Dulbecco’s modified Eagle’s medium and H460 cells were cultured in RPMI 1640 medium containing 10% fetal bovine serum and 1% penicillin/streptomycin at 37 °C with a 5% Co2 hypoxia experimental condition. The cells were grown in the hypoxia chamber (1% O2, 94% N2, and 5% Co2 in a multigas incubator)
Cell growth inhibition was assessed using sulforhodamine B (SRB) as described in [34]. The cells were fixed with 10% formalin (Sigma-Aldrich) and stained with 0.4% SRB. Protein-bound dye was dissolved in 10 mM of Tris, and its optical density was measured at 540 nm.

A549 cells [1] = test: Real-time ATP production rate (XF analyzer); format: cell-based, human
Text: We then examined whether the ATP production pattern was altered by drug treatment using an XF analyzer for real-time metabolic analysis (Figure 5).

A549 cells [2] = test: ADP/ATP ratio assay; format: cell-based, human
Protocol: Malate transported to the interior of the mitochondria is oxidized to OAA by mitochondrial MDH2, thereby generating NADH, which then enters the ETC to produce ATP. Because inhibition of MAS is expected to reduce ATP production in cancer cells, the total amount of ATP was measured after treatment with compound 50.
The ADP/ATP ratio assay kit (Sigma-Aldrich, USA) was used for ADP/ATP determination according to the manufacturer’s instructions. Samples for analysis were prepared using the ADP/ATP ratio assay kit. A549 cells were cultured directly in an assay microplate. The culture medium was removed, and then 90 µL of ATP reagent was added to each well and incubated for 1 min at room temperature. Luminescence was measured on a luminometer for ATP (RLUA), and the plate was incubated for an additional 10 min. Next, the luminescence was read on a luminometer for ATP (RLUB). Five microliters of ADP reagent were added to each well. After 1 min, the luminescence was read (RLUC).

HIF-1α = test: Western blot of HIF-1α and its target genes under hypoxia; format: cell-based, human; details: A549 cells, hypoxia
Protocol: Previously, it has been reported that the inhibition of MDH1 or MDH2 enzymes is related to HIF-1a expression levels. We investigated whether compound 50 decreases HIF-1α accumulation in A549 cells (Figure 6). […] Additionally, we confirmed that compound 50 suppressed the protein expression of HIF-1α target genes, such as GLUT1 and PDK1 (Figure 6), as clearly shown by the Western blot assay.
as §1
The cells were lysed with RIPA buffer (Millipore, Billerica, MA, USA) containing a protease inhibitor cocktail (Roche, Basel, Switzerland) for 15 min at 4 °C and centrifuged at 12,000 rpm for 10 min. The lysates were quantified using a protein assay kit (Bio-Rad, Hercules, CA, USA). The lysates were subjected to an SDS-PAGE analysis and transferred to PVDF membranes (Millipore, Billerica, MA, USA). The proteins were identified using the appropriate antibodies: HIF-1α (BD Transduction Laboratories, San Diego, CA, USA), pyruvate dehydrogenase kinase 1 (PDK1) (Cell Signaling, Danvers, MA, USA), GLUT1 and β-action (Santa Cruz Biotechnology, Danvers, MA, USA), and CD73 (Proteintech, Rosemont, IL, USA).

For CC(C)(C)CC(C)(C)c1ccc(N2CCC(C(=O)Nc3cccc(OC(F)(F)F)c3)CC2)cc1 [Compound 50, N-(3-(Trifluoromethoxy)phenyl)-1-(4-(2,4,4-trimethylpentan-2-yl)phenyl)piperidine-4-carboxamide], which IC50 (A549 lung cancer cells) is on record?
Its IC50 is 3.94 ± 0.04 µM.

What about the “total ATP decrease” value (A549 cells [1]; 5 µM) of the same compound?
Its value is 14.6%.

What about the “total ATP decrease” value (A549 cells [1]; 10 µM) of the same compound?
Its value is 28.6%.

And the ADP/ATP (A549 cells [2])?
Its ADP/ATP is “increase in ADP/ATP”.

What about the HIF-1α accumulation (HIF-1α) of the same compound?
The HIF-1α accumulation was “decreased HIF-1α accumulation in a dose-dependent manner”.

And the “protein expression of HIF-1α target genes GLUT1 and PDK1” value (HIF-1α; Western blot)?
The value was “suppressed”.
